Reference: ChEMBL document CHEMBL4261619, “Sentulic acid isolated from Sandoricum koetjape Merr attenuates lipopolysaccharide and interferon gamma co-stimulated nitric oxide production in murine macrophage RAW264 cells” (Bioorg Med Chem Lett, 2018)
Activity calls are given as the source filed them. No cut-off for these calls is given here.

Key:
Format in all cases: cell-based
[1] = biological target: T1, Toll-like receptor 4 (Mus musculus) (UniProt Q9QUK6); assay: Inhibition of LPS binding to TLR4 in IFNgamma-stimulated mouse RAW264.7 cells assessed as suppression of COX2 mRNA expression at 100 uM by qRT-PCR analysis
T1 sequence (whole entry): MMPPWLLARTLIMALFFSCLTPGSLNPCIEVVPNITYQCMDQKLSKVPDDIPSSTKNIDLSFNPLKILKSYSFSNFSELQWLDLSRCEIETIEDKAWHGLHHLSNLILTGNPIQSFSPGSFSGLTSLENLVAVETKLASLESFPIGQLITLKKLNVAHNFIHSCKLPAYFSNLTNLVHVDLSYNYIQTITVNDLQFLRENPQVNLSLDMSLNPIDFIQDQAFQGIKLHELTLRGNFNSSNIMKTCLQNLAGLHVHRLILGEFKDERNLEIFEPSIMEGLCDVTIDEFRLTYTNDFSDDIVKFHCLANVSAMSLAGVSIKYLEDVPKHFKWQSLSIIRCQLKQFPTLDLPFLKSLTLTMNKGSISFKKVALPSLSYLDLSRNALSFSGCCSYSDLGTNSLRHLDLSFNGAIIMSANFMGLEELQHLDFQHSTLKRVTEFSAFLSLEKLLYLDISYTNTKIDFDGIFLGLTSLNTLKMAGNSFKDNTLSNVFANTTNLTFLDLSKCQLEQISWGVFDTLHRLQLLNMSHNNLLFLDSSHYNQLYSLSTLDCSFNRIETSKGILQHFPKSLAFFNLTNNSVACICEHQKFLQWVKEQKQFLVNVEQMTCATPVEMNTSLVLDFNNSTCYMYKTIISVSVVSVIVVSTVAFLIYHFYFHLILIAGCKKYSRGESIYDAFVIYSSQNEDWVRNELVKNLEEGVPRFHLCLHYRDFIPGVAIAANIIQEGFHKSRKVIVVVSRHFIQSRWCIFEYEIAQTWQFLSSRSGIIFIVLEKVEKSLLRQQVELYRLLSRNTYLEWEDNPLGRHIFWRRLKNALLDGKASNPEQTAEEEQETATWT

[2] = biological target: T1, Toll-like receptor 4 (Mus musculus); assay: Inhibition of LPS binding to TLR4 in IFNgamma-stimulated mouse RAW264.7 cells assessed as reduction in COX2 expression at 100 uM by Western blot analysis
[3] = biological target: T1, Toll-like receptor 4 (Mus musculus); assay: Inhibition of LPS binding to TLR4 in IFNgamma-stimulated mouse RAW264.7 cells assessed as suppression of TNFalpha mRNA expression at 100 uM by qRT-PCR analysis
[4] = biological target: T1, Toll-like receptor 4 (Mus musculus); assay: Inhibition of LPS binding to TLR4 in IFNgamma-stimulated mouse RAW264.7 cells assessed as suppression of IL6 mRNA expression at 100 uM by qRT-PCR analysis
[5] = biological target: T1, Toll-like receptor 4 (Mus musculus); assay: Inhibition of LPS binding to TLR4 in IFNgamma-stimulated mouse RAW264.7 cells assessed as effect on ratio of phosphorylated TAK1 to total TAK1 at 100 uM measured after 30 mins by Western blot analysis relative to beta-actin (reference value: 3.7)
[6] = biological target: T1, Toll-like receptor 4 (Mus musculus); assay: Inhibition of LPS binding to TLR4 in IFNgamma-stimulated mouse RAW264.7 cells assessed as effect on ratio of phosphorylated TAK1 to total TAK1 at 100 uM measured after 120 mins by Western blot analysis relative to beta-actin (reference value: 3)
[7] = biological target: T1, Toll-like receptor 4 (Mus musculus); assay: Inhibition of LPS binding to TLR4 in IFNgamma-stimulated mouse RAW264.7 cells assessed as effect on ratio of phosphorylated ERK to total ERK at 100 uM measured after 30 mins by Western blot analysis relative to beta-actin (reference value: 0.8)
[8] = biological target: T1, Toll-like receptor 4 (Mus musculus); assay: Inhibition of LPS binding to TLR4 in IFNgamma-stimulated mouse RAW264.7 cells assessed as effect on ratio of phosphorylated ERK to total ERK at 100 uM measured after 60 mins by Western blot analysis relative to beta-actin (reference value: 3)
[9] = biological target: T1, Toll-like receptor 4 (Mus musculus); assay: Inhibition of LPS binding to TLR4 in IFNgamma-stimulated mouse RAW264.7 cells assessed as effect on ratio of phosphorylated ERK to total ERK at 100 uM measured after 120 mins by Western blot analysis relative to beta-actin (reference value: 3)
[10] = biological target: T1, Toll-like receptor 4 (Mus musculus); assay: Inhibition of LPS binding to TLR4 in IFNgamma-stimulated mouse RAW264.7 cells assessed as effect on ratio of phosphorylated p38 to total p38 at 100 uM measured after 15 mins by Western blot analysis relative to beta-actin (reference value: 4.9)
[11] = biological target: T1, Toll-like receptor 4 (Mus musculus); assay: Inhibition of LPS binding to TLR4 in IFNgamma-stimulated mouse RAW264.7 cells assessed as effect on ratio of phosphorylated p38 to total p38 at 100 uM measured after 60 mins by Western blot analysis relative to beta-actin (reference value: 1.9)
[12] = biological target: T1, Toll-like receptor 4 (Mus musculus); assay: Inhibition of LPS binding to TLR4 in IFNgamma-stimulated mouse RAW264.7 cells assessed as effect on ratio of phosphorylated JNK to total JNK at 100 uM measured after 30 mins by Western blot analysis relative to beta-actin (reference value: 2.3)
[13] = biological target: T1, Toll-like receptor 4 (Mus musculus); assay: Inhibition of LPS binding to TLR4 in IFNgamma-stimulated mouse RAW264.7 cells assessed as effect on ratio of phosphorylated AKT to total AKT at 100 uM measured after 60 mins by Western blot analysis relative to beta-actin (reference value: 1.4)
[14] = biological target: T1, Toll-like receptor 4 (Mus musculus); assay: Inhibition of LPS binding to TLR4 in IFNgamma-stimulated mouse RAW264.7 cells assessed as effect on ratio of phosphorylated AKT to total AKT at 100 uM measured after 120 mins by Western blot analysis relative to beta-actin (reference value: 1.4)
[15] = biological target: T1, Toll-like receptor 4 (Mus musculus); assay: Inhibition of LPS binding to TLR4 in IFNgamma-stimulated mouse RAW264.7 cells assessed as effect on ratio of phosphorylated NFkappaB to total NFkappaB at 100 uM measured after 15 mins by Western blot analysis relative to beta-actin (reference value: 4.7)
[16] = biological target: T1, Toll-like receptor 4 (Mus musculus); assay: Inhibition of LPS binding to TLR4 in IFNgamma-stimulated mouse RAW264.7 cells assessed as effect on ratio of phosphorylated NFkappaB to total NFkappaB at 100 uM measured after 30 mins by Western blot analysis relative to beta-actin (reference value: 2.7)
[17] = biological target: T1, Toll-like receptor 4 (Mus musculus); assay: Inhibition of LPS binding to TLR4 in IFNgamma-stimulated mouse RAW264.7 cells assessed as effect on ratio of phosphorylated NFkappaB to total NFkappaB at 100 uM measured after 120 mins by Western blot analysis relative to beta-actin (reference value: 1.2)
[18] = tested on: RAW264.7; assay: Inhibition of IFNgamma binding to IFNGR in LPS-stimulated mouse RAW264.7 cells assessed as effect on ratio of phosphorylated Stat1 to total Stat1 at 100 uM measured after 15 mins by Western blot analysis relative to beta-actin (reference value: 1.3)
[19] = biological target: T1, Toll-like receptor 4 (Mus musculus); assay: Displacement of Alexa fluor 488-conjugated LPS from TLR4 in mouse RAW264.7 cells at 100 uM pretreated for 2 hrs followed by Alexa fluor 488-conjugated LPS addition and measured after 30 mins by Hoechst 33342 staining based assay relative to control

- inhibition [1]: inactive
- inhibition [2]: inactive
- inhibition [3]: Active
- inhibition [4]: Active
- fold change (FC) [5]: 0.6
- fold change (FC) [6]: 0.9
- fold change (FC) [7]: 0.7
- fold change (FC) [8]: 2.2
- fold change (FC) [9]: 2.2
- fold change (FC) [10]: 4
- fold change (FC) [11]: 2
- fold change (FC) [12]: 1.5
- fold change (FC) [13]: 1
- fold change (FC) [14]: 0.9
- fold change (FC) [15]: 2.9
- fold change (FC) [16]: 1.6
- fold change (FC) [17]: 1
- inhibition [19]: 43%
Compound: C=C(C)[C@@H]1CC[C@]2(C)[C@H](CC=C3[C@@H]4CC(C)(C)CC[C@]4(C)CC[C@]32C(=O)O)[C@@]1(C)CCC(=O)O
- fold change (FC) [18]: 1.2
